# Test results taken from publication PMC8781960, “Structural Basis of 2-Phenylamino-4-phenoxyquinoline Derivatives as Potent HIV-1 Non-Nucleoside Reverse Transcriptase Inhibitors” (Molecules, 2022).
# Marks after values point to notes of the source that are not given here.
# Columns and labels:
# [1] = target: T1, HIV-1 RT (Human immunodeficiency virus type 1 group M subtype B, UniProt P03366); experiment: HIV-1 RT inhibition assay (Roche RT kit, colorimetric ELISA); format: biochemical; conditions: for inhibition at 1 µM: read-out: Inhibitory activities (%) against HIV-1 RT
# T1 construct: The reaction mixture consisted of template/primer complex, 2′-deoxy-nucleotide-5′-triphosphates (dNTPs), and RT enzyme in lysis buffer; purchased Roche Applied Science, Mannheim, Germany
# Text: The inhibition assay of HIV-1 RT was accomplished using the template/primer hybrid poly(A) × oligo(dT)15, digoxigenin (DIG)- and biotin-labeled nucleotides, an antibody to DIG that was conjugated to peroxidase (anti-DIG-POD), and the peroxidase substrate ABTS. The quantities of DIG- and biotin-labeled dUTP incorporated into DNA represent t HIV-1 RT activity. The HIV-RT inhibition assay was implemented using an RT assay kit (Roche Applied Science, Mannheim, Germany), and the procedures for assaying RT inhibition were performed as described in the kit protocol. […] The reaction mixture consisted of template/primer complex, 2′-deoxy-nucleotide-5′-triphosphates (dNTPs), and RT enzyme in lysis buffer with or without an inhibitor. […] The biotin-labeled dNTPs that were incorporated in the template bound to streptavidin because of the presence of RT. Unbound dNTPs were washed using a wash buffer, and anti-DIG-POD was added to the MTP. The DIG-labeled dNTPs incorporated in the template bound to the anti-DIG-POD antibody. Unbound anti-DIG-POD was also washed elaborately five times using a wash buffer. Finally, the peroxide substrate (ABST) was added to the MTP. A colored reaction product emerged during the cleavage of the substrate catalyzed by […]. The absorbance of the sample was measured at the optical density (OD) at 490 nm using the MTP (enzyme-linked immunosorbent assay [ELISA]) reader. The percentage inhibitory activities of the RT inhibitors were calculated by comparing with that of the sample without an inhibitor. The resulting color intensity was directly proportional to the RT activity. Percentage inhibitory values were calculated using the following formula: Inhibition (%) = [1–(OD value with RT and inhibitor−OD value without RT and inhibitors)/(OD value without inhibitors with RT−OD value without RT and inhibitors)] × 100.
# [2] = test system: A549 (lung carcinoma); experiment: In vitro cytotoxicity (MTT); conditions: for %C percentage cytotoxicity A549: at 50 µg/mL, inactive (IC50 ≥ 50 µg/mL); for IC50: Homo sapiens, A549, 48 h, read-out: IC50 A549
# Procedure: (§1) Background control wells contained the same volume as the complete culture medium. […] Samples at various concentrations were added to the microplate and incubated for another 48 h. Cell viability was determined by 3(4,5-dimethylthiazol-2-yl)-2-5-diphenyl tetrazolium bromide (MTT) assay (Sig-ma-Aldrich). The reagent was dissolved in phosphate-buffered saline at 5 mg/mL and filtered to sterilize and remove the small amount of insoluble residue present in some batches of MTT. […] Subsequently, dimethyl sulfoxide (100 µL; Merck, Germany) was added to dissolve the resulting formazan by sonication. The plates were read on a microplate reader (Molecular Devices, CA, USA) using a test wavelength of 550 nm and a reference wavelength of 650 nm. XTT assay for suspension cells was used for MOLT-3 cells.
# [3] = test system: HL-60 (promyeloblast); experiment: In vitro cytotoxicity (MTT); conditions: for %C percentage cytotoxicity HL-60: at 50 µg/mL, inactive (IC50 ≥ 50 µg/mL); for IC50: Homo sapiens, HL-60, 48 h, read-out: IC50 HL-60
# Procedure: as §1
# [4] = test system: HeLA (cervical carcinoma); experiment: In vitro cytotoxicity (MTT); conditions: for %C percentage cytotoxicity HeLA: at 50 µg/mL, inactive (IC50 ≥ 50 µg/mL); for IC50: Homo sapiens, HeLa, 48 h, read-out: IC50 HeLA
# Procedure: as §1
# [5] = test system: HepG2 (hepatocarcinoma); experiment: In vitro cytotoxicity (MTT); conditions: for %C percentage cytotoxicity HepG2: at 50 µg/mL, inactive (IC50 ≥ 50 µg/mL); for IC50: Homo sapiens, HepG2, 48 h, read-out: IC50 HepG2
# Procedure: as §1
# [6] = test system: HuCCA-1 (cholangiocarcinoma); experiment: In vitro cytotoxicity (MTT); conditions: for %C percentage cytotoxicity HuCCA-1: at 50 µg/mL, inactive (IC50 ≥ 50 µg/mL); for IC50: Homo sapiens, HuCC-A1, 48 h, read-out: IC50 HuCCA-1
# Procedure: as §1
# [7] = test system: MDA-MB-231 (hormone-independent breast cancer); experiment: In vitro cytotoxicity (MTT); conditions: for IC50: Homo sapiens, MDA-MB-231, 48 h, read-out: IC50 MDA-MB-231; for %C percentage cytotoxicity MDA-MB-231: at 50 µg/mL, inactive (IC50 ≥ 50 µg/mL)
# Procedure: as §1
# [8] = test system: S102 (Thai liver cancer); experiment: In vitro cytotoxicity (MTT); conditions: for %C percentage cytotoxicity S102: at 50 µg/mL, inactive (IC50 ≥ 50 µg/mL)
# Procedure: as §1
# [9] = test system: T47-D (hormone-dependent breast cancer); experiment: In vitro cytotoxicity (MTT); conditions: for %C percentage cytotoxicity T47-D: at 50 µg/mL, inactive (IC50 ≥ 50 µg/mL); for IC50: Homo sapiens, T47D, 48 h, read-out: IC50 T47-D
# Procedure: as §1
# [10] = test system: MOLT-3 (acute lymphoblastic leukemia); experiment: In vitro cytotoxicity (XTT); conditions: for %C percentage cytotoxicity MOLT-3: at 50 µg/mL, inactive (IC50 ≥ 50 µg/mL); for IC50: Homo sapiens, MOLT-3, 48 h, read-out: IC50 MOLT-3
# Procedure: as §1
# [11] = test system: MRC-5 (normal embryonic lung cell); experiment: In vitro cytotoxicity (MTT), normal cell line; conditions: for IC50: Homo sapiens, MRC5, 48 h, read-out: IC50 MRC-5; for %C percentage cytotoxicity MRC-5: normal cell line, at 50 µg/mL, inactive (IC50 ≥ 50 µg/mL)
# Procedure: as §1
# [12] = test system: H69AR (lung cancer, multidrug resistant); experiment: In vitro cytotoxicity (MTT); format: cell-based, human; conditions: 48 h; for %C percentage cytotoxicity H69AR: human, 50 µg/mL; for IC50: Homo sapiens, H69AR, mean ± standard error
# Procedure: Background control wells contained the same volume as the complete culture medium. […] The reagent was dissolved in phosphate-buffered saline at 5 mg/mL and filtered to sterilize and remove the small amount of insoluble residue present in some batches of MTT. […] Subsequently, dimethyl sulfoxide (100 µL; Merck, Germany) was added to dissolve the resulting formazan by sonication. The plates were read on a microplate reader (Molecular Devices, CA, USA) using a test wavelength of 550 nm and a reference wavelength of 650 nm.
SMILES,inhibition at 1 µM [1] [%],%C percentage cytotoxicity A549 [2],%C percentage cytotoxicity HL-60 [3],%C percentage cytotoxicity HeLA [4],%C percentage cytotoxicity HuCCA-1 [6],IC50 [7] [µM],%C percentage cytotoxicity S102 [8],%C percentage cytotoxicity T47-D [9],%C percentage cytotoxicity MOLT-3 [10],IC50 [11] [µM],%C percentage cytotoxicity H69AR [12],melting point [°C],IC50 [2] [µM],IC50 [5] [µM],IC50 [6] [µM],IC50 [9] [µM],%C percentage cytotoxicity MRC-5 [11],IC50 [3] [µM],IC50 [4] [µM],IC50 [10] [µM],further results
"N#Cc1ccc(Oc2cc(Oc3ccc(C#N)cc3)c3ccccc3n2)cc1 [Compound 4c, 2,4-di-(4′-cyanophenoxy)-quinoline]",30.9 ± 1.8,%C = 12.0 ^c,%C = 15.0 ^c,%C = 23.0 ^c,%C = 15.0 ^c,92.5 ± 4.2,%C = 23.7 ^c,%C = 27.0 ^c,%C = 11.0 ^c,108 ± 6.4,%C = 21.0 ^c,220.9 to 221.5,,,,,,,,,%C percentage cytotoxicity HepG2 [5]: %C = 41.4 ^c
"Cc1cc(C#N)cc(C)c1Oc1cc(Oc2c(C)cc(C#N)cc2C)c2ccccc2n1 [Compound 4d, 2,4-di-(2′,6′-Dimethyl-4′-cyanophenoxy)-quinoline]",40.3 ± 3.3,,%C = 23.0 ^c,%C = 40.0 ^c,,92.5 ± 5,%C = 31.5 ^c,,%C = 13.0 ^c,,%C = 38.0 ^c,201.8 to 202.4,55.5 ± 5.7,92.2 ± 6.8,83.5 ± 11.1,55.2 ± 1.5,%C = 26.9 ^c,,,,
"N#Cc1ccc(Nc2cc(Oc3ccc(C=O)cc3)c3ccccc3n2)nc1 [Compound 6a, 4-(4’-formylphenoxy)-2-(5″-cyanopyridin-2″ylamino)quinoline]",19.4 ± 1.8,%C = 42.0 ^c,,,,68 ± 2,%C = 31.7 ^c,,,18.3 ± 3.9,,248 to 249,,23.7 ± 1,14.9 ± 1.1,46.3 ± 0.2,,15 ± 1.8,15.4 ± 0.8,5.13 ± 1.5,IC50 [12]: 64.2 ± 2.5 µM
"Cc1cc(C=O)cc(C)c1Oc1cc(Nc2ccc(C#N)cn2)nc2ccccc12 [Compound 6b, 4-(2’,6’-Dimethyl-4’-formylphenoxy)-2-(5″-cyanopyridin-2″ylamino)quinoline]",44.5 ± 2.8,,,,,103 ± 1.9,,%C = 38.0 ^c,,,%C = 21.0 ^c,275.7 to 276.5,108 ± 1.2,92.8 ± 11.8,126 ± 1.8,,%C = 26.1 ^c,20.5 ± 2.1,25.7 ± 0.8,12.7 ± 1.1,"IC50 [1]: 1930 nM; IC50 ([8]; Homo sapiens, 48 h, read-out: IC50 S102): 112 ± 1.8 µM; cytotoxicity toward normal embryonic lung (MRC-5) cells, in words [11]: very low cytotoxicity"
"N#Cc1ccc(Oc2cc(Nc3ccc(C#N)cn3)nc3ccccc23)cc1 [Compound 6c, 4-(4′-cyanophenoxy)-2-(5″-cyanopyridin-2″ylamino)quinoline]",27.6 ± 2.1,,%C = 9.0 ^c,,,66.6 ± 3,%C = 44.8 ^c,,,69.2 ± 12.4,,225.7 to 225.9,14 ± 2.2,101.7 ± 0.7,22.9 ± 0.9,47.1 ± 3.3,,,67.7 ± 0.6,14.1 ± 0.4,IC50 [12]: 66.2 ± 2.4 µM
"Cc1cc(C#N)cc(C)c1Oc1cc(Nc2ccc(C#N)cn2)nc2ccccc12 [Compound 6d, 4-(2′,6′-Dimethyl-4′-cyanophenoxy)-2-(5’’-cyanopyridin-2’’ylamino)quinoline]",45.1 ± 1.5,%C = 8.0 ^c,%C = 13.0 ^c,%C = 0.0 ^c,%C = 0.0 ^c,,%C = 0.0 ^c,%C = 1.0 ^c,%C = 27.0 ^c,,%C = 0.0 ^c,229.4 to 230.3,,,,,%C = 0.0 ^c,,,,"IC50 [1]: 1220 nM; %C percentage cytotoxicity HepG2 [5]: %C = 0.0 ^c; %C percentage cytotoxicity MDA-MB-231 [7]: %C = 8.3 ^c; cytotoxicity toward normal embryonic lung (MRC-5) cells, in words [11]: no cytotoxicity"
"O=Cc1ccc(Oc2cc(-c3cc(Oc4ccc(C=O)cc4)c4ccccc4n3)nc3ccccc23)cc1 [Compound 7a, 4,4′-di-(4′-formylphenoxy)-2,2′-biquinoline]",22.9 ± 1.2,,%C = 25.0 ^c,,,74.1 ± 5.3,%C = 17.6 ^c,,,,%C = 20.0 ^c,288.7 to 289.3,69.5 ± 3.3,69.8 ± 11.8,88.2 ± 4.4,96.1 ± 3.3,%C = 33.9 ^c,,88 ± 4.3,74.2 ± 6.3,
"N#Cc1ccc(Nc2cc(Oc3ccc(C=O)cc3)nc3ccccc23)cc1 [Compound 8a, 2-(4′-formylphenoxy)-4-(4″-cyanophenyl)-aminoquinoline]",29.6 ± 2.7,,,,,118 ± 5.8,%C = 2.9 ^c,%C = 0.0 ^c,,119 ± 5.7,%C = 8.4 ^c,238.5 to 238.9,111 ± 5.6,85.3 ± 3.5,22.7 ± 1.9,,,107 ± 1.4,112 ± 3.1,21.5 ± 3.3,
"Cc1cc(C=O)cc(C)c1Oc1cc(Nc2ccc(C#N)cc2)c2ccccc2n1 [Compound 8b, 2-(2′,6′-Dimethyl-4′-formylphenoxy)-4-(4″-cyanophenyl)-aminoquinoline]",39.6 ± 1.5,%C = 37.0 ^c,,,%C = 43.0 ^c,107 ± 3.2,%C = 0.0 ^c,%C = 38.0 ^c,,,%C = 6.0 ^c,200 to 201.3,,106 ± 9.7,,,%C = 9.7 ^c,34.9 ± 5.1,42.3 ± 2.7,22.3 ± 1.9,
"N#Cc1ccc(Nc2cc(Oc3ccc(C#N)cc3)nc3ccccc23)cc1 [Compound 8c, 2-(4′-cyanophenoxy)-4-(4″-cyanophenyl)-aminoquinoline]",28.1 ± 3,%C = 29.0 ^c,%C = 1.0 ^c,%C = 0.0 ^c,%C = 25.8 ^c,,%C = 0.0 ^c,%C = 35.0 ^c,%C = 2.1 ^c,,%C = 21.0 ^c,187.5 to 188,,,,,%C = 17.2 ^c,,,,%C percentage cytotoxicity HepG2 [5]: %C = 40.3 ^c; %C percentage cytotoxicity MDA-MB-231 [7]: %C = 0.0 ^c
